4 compounds from ChEMBL document CHEMBL1201862, “PubChem BioAssay data set” (2004) can be followed below.

Common to all, as to assay: NCI anticancer screen, dose series, 48 h
The subject of experiment [1] is A498.
In experiment [2] the test system is A549.
For experiment [3], the system named is BT-549.
In experiment [4] the test system is CAKI-1.
Experiment [5] has as its system COLO 205.
Experiment [6] has as its system HL-60.
The subject of experiment [7] is HOP-62.
Experiment [8] concerns HT-29.
The subject of experiment [9] is Hs-578T.
Experiment [10] deals with KM12.
In experiment [11] the test system is LOX IMVI.
In experiment [12] the test system is MDA-N.
The subject of experiment [13] is Malme-3M.
The subject of experiment [14] is NCI/ADR-RES.
The test system of experiment [15] is PC-3.
Experiment [16] concerns SF-268.
Experiment [17] relates to SN12C.
Experiment [18] relates to SNB-75.
Experiment [19] has as its system UACC-257.

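In this assay, cells in 96-well plates receive the compound at five concentrations for 48 hours. Endpoints are linearly interpolated between the surrounding concentrations. GI50 is the concentration that inhibits growth by half.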 Active and inactive are the calls of the source. No stated cut-off is given here; in the data, active = GI50 up to about 1.1 µM and inactive = higher. Some results are limits rather than exact numbers.

In the case of `COc1cc2oc(-c3ccc4c(c3)OCO4)c(OC)c(=O)c2c(OC)c1O`, the GI50 in [1] is 45.4 µM (inactive); in experiment [2], 48.1 µM (inactive); in [3] it was 31.4 µM (inactive); in experiment [4], > 100 µM (inactive); in [5], > 100 µM (inactive); in [6], 28.7 µM (inactive). The GI50 in [7] is 57.4 µM (inactive); in experiment [8], > 100 µM (inactive); in experiment [9] it was 61 µM (inactive); in experiment [10] it was > 100 µM (inactive); in [11], 32.7 µM (inactive); in [12] it was > 100 µM (inactive). In addition, the GI50 in experiment [13] is > 100 µM (inactive); in experiment [14], 66.8 µM (inactive); in experiment [15] it was 68.5 µM (inactive); in experiment [16] it was 27.9 µM (inactive); in [17], 71.8 µM (inactive); in [18] it was 33.2 µM (inactive). In experiment [19], the GI50 is > 100 µM (inactive).
As to `C(=N\NC1=NCCN1)/c1cccc2cc3ccncc3nc12`, the GI50 in experiment [1] is 11.6 µM (inactive); in [2], 6.76 µM (inactive); in experiment [3], 16 µM (inactive); in experiment [4], 2.84 µM (inactive); in experiment [5], 1.21 µM (inactive); in experiment [6], 1.04 µM (active). In addition, the GI50 in experiment [7] was 6.22 µM (inactive); in experiment [8], 1.71 µM (inactive); in [9], 3.94 µM (inactive); in experiment [10], 5.73 µM (inactive); in experiment [11], 1.73 µM (inactive); in experiment [12] it was 2.89 µM (inactive). Further, the GI50 in [13] was 10.6 µM (inactive); in experiment [14], 3.24 µM (inactive); in [15], 3.67 µM (inactive); in [16] it was 3.85 µM (inactive); in experiment [17], 3.15 µM (inactive); in experiment [18], 0.259 µM (active). In experiment [19], the GI50 was 9.89 µM (inactive).
On to `CC/C=C/C(/C=C/C[C@]1(CC)C[C@H](CC)[C@H](CC(=O)O)OO1)CC` (stereo partly specified), for which the GI50 in experiment [1] is 14.3 µM (inactive); in [2] it was 1.68 µM (inactive); in experiment [3], 6.28 µM (inactive); in experiment [4], 1.96 µM (inactive); in experiment [5], 1.78 µM (inactive); in experiment [6], 2.16 µM (inactive). The GI50 is 1.58 µM (inactive) in [7]; 1.84 µM (inactive) in experiment [8]; 1.91 µM (inactive) in experiment [9]; 1.62 µM (inactive) in [10]; 0.33 µM (active) in experiment [11]; 1.85 µM (inactive) in experiment [12]. In addition, the GI50 is 12.4 µM (inactive) in [13]; 2.1 µM (inactive) in experiment [14]; 1.67 µM (inactive) in experiment [15]; 3.58 µM (inactive) in experiment [16]; 5.65 µM (inactive) in experiment [17]; 6.41 µM (inactive) in experiment [18]. For the same compound, in experiment [19], the GI50 was 14.5 µM (inactive).
Turning to `CCOC(=O)c1cc(-n2nnc3ccccc32)cn1C`, the GI50 in experiment [1], in experiment [2], in experiment [3], in experiment [4], in [5] and in experiment [6] was > 10 µM (inactive) throughout. Also, the GI50 in experiment [7], in experiment [8], in experiment [9], in experiment [10], in experiment [11] and in [12] was > 10 µM (inactive) each time. Also, the GI50 is > 10 µM (inactive) in experiment [13]; > 10 µM (inactive) in experiment [14]; > 10 µM (inactive) in experiment [15]; > 10 µM (inactive) in experiment [16]; > 10 µM (inactive) in experiment [17]; 8.59 µM (inactive) in experiment [18]. For the same compound, the GI50 in [19] was > 10 µM (inactive).
